Results: PMC11329504, “Identification of novel small molecule-based strategies of COL7A1 upregulation and readthrough activity for the treatment of recessive dystrophic epidermolysis bullosa” (Scientific Reports, 2024)

Assays:
RDEB_L1 cells = assay: RNAseq (HTPathwaySeq) transcriptomic profiling, GSEA; format: cell-based, human; conditions: 24 h; for modulation of GO terms related to NMD, readthrough, translation and unfolded protein response: 20 ng/mL TGFβ2, compound 7 and 8 at the highest concentrations tested of 100 and 300 µM
Procedure: The […]®) analysis was conducted at […], Belgium) using samples provided by Almirall. A total of 376 cell lysate samples representing 4 biological replicates of 94 samples were provided to […] in four 96-well plates. On each 96-well plate, two empty wells were allocated to include […] reference samples. Samples from the same biological group were distributed over the different plates to not confound inter-plate variability with biological signal. […] The compounds were evaluated in RDEB_L1 cells in the presence of 20 ng/mL TGFβ2 to mimic RDEB physiology and in normal human keratinocytes with no TGFβ2 treatment. Cells were treated during 24 h. Controls for RDEB_L1 cells not treated with TGFβ2 and RDEB_L1 and NHK cells treated with DMSO in the absence of compounds were also included. The conditions of the assay were identical to those described for the Real-time quantitative RT-PCR (see above). For the […], over 460 M reads were generated for 376 samples of interest, resulting in about 1.22 M reads per sample on average. […] is based on a 3'-end library preparation method, and gene body read coverage is concentrated towards the 3'-end of the genes. For quality control, a selection of lysate samples was checked for gDNA contamination and RNA content using qPCR before library preparation. RNA samples were processed to generate RNA-sequencing libraries using […] procedure based on the QuantSeq (Lexogen) 3'-end library preparation workflow. The quality of a selection of samples was assessed with the 2100 Bioanalyzer instrument (Agilent). Libraries were quantified using qPCR and pooled for single-end sequencing on a NextSeq 500 (Illumina) according to […] standard operating procedure. Raw reads were mapped to the human genome (hg38) and gene expression was quantified based on the Ensembl transcriptome annotation (version 85) using […]. Raw counts were normalized using […]2 prior to differential gene expression analysis. For each cell line, samples were clustered based on log-transformed normalized counts using tSNE. A perplexity parameter of 35 and a maximum number of 1000 iterations were applied. Genes with more than 10 normalized counts in at least 3 samples were used as input. Analysis was run in R (v3.2) with a fixed seed. […] For each contrast, genes ranked by fold change were used as input. PCA was applied on the fold changes of each compound vs their associated vehicle using the 500 genes with the greatest variance. Arrows connect the different incremental dosages used on each compound to observe their differentiation patterns. Pathway enrichment and PCA were performed using R v.3.2. Pathway enrichment was analyzed with cluster profile package. The procedure followed for the cell treatments of RDEB-L1 and NHEK, was the same as that used in the RT-qPCR study. Cell lysis and sample preparation were conducted according to […] instructions: Plates of treated cells were centrifuged for 5 min at 600 g at 4 °C, and the medium was carefully removed to avoid disturbing the cells. Then, cells were washed in PBS, centrifuged and the PBS was removed again. […] After checking that cells were lysed, the samples were transferred to 96-well PCR plates, and then sealed and stored at -80 °C to be sent to […].

[1] = tested on: truncated and full-length C7 in RDEB_L1, RDEB_L5 and HEK293^R578X cells; assay: Western blot detection of truncated and full-length C7; format: cell-based, human
Procedure: For western blot, RDEB or normal human keratinocytes were lysed in protein extraction buffer (50 mM Tris–HCl [pH 7.5], 100 mM NaCl, 1% Nonidet P-40, and 4 mM EDTA) containing proteinase inhibitors cocktail (Complete Mini, EDTA free; Roche Diagnostics, Mannheim, Germany). Lysates were incubated for 30 min on ice and centrifuged at 15,000 g for 30 min at 4 °C. Supernatants were then collected and concentrated by ultrafiltration using Amicon Ultra columns (10 kDa; Millipore, Ireland). Protein concentrations were measured using the Bradford assay (Bio-Rad, Hercules, CA). For each sample, […] total protein was resolved on NuPAGE Novex 3%–8% Tris–Acetate gel electrophoresis (Invitrogen, Carlsbad, CA) and electrotransferred to nitrocellulose membranes (Invitrogen, Carlsbad, CA). For type VII collagen analysis, blots were probed with a monospecific polyclonal anti-C7 antibody (a generous gift from Dr. A. Nystrom, University of Freiburg). Invitrogen anti-MDH1 polyclonal antibody (PA550446, 1:1000) was used to detect MDH1. Standard antibodies against a reference protein were used as a loading control, as indicated. Visualization of the resulting signal was performed by incubating with horseradish peroxidase (HRP)- conjugated anti-rabbit antibody (Amersham, Burlington, MA) and West Pico Chemiluminescent Substrate (Pierce, Rockford, IL).

Row | SMILES | TGFβ signaling pathway signature (GSEA) (RDEB_L1 cells; 20 ng/mL TGFβ2, at 10 µM) | modulation of GO terms related to NMD, readthrough, translation and unfolded protein response (RDEB_L1 cells) | C7 products induced, western blot ([1]; RDEB_L1 cells, 10 μM) | TGFβ signaling pathway signature (GSEA) (RDEB_L1 cells; 20 ng/mL TGFβ2) | C7 products induced, western blot ([1]; RDEB_L1 and HEK293^R578X cells, 50 μM compound 7, 50 μM chuangxinmycin, 100 μM 3-methyl-chuangxinmycin) | concentrations showing some upregulation of truncated and full-length forms of C7 in western blot ([1]; western blot)
1 | NC(=O)Cn1ccc2ccc(-c3cnc(N)c(C(=O)NC4C5CC6CC4CC(O)(C6)C5)n3)cc21 (centres unmarked) [Compound 1] | Downregulation of TGFβ signaling | Neither compound 1 nor chuangxinmycin nor 3-methyl-chuangxinmycin showed any impact on these pathways | only upregulating the truncated form of C7 | – | – | –
2 | C#Cc1cc(-c2ccncc2)c(-c2cccc(F)c2)nc1N [Compound 7] | – | modulating genes specifically related to cytoplasmic translation and the ribosome | – | did not show any effect | partially upregulated full-length C7 | –
3 | CNC(C)C1CCC(N)C(OC2C(N)CC(N)C(OC3OCC(C)(O)C(NC)C3O)C2O)O1 (centres unmarked) [Gentamicin, reference compound] | – | modulating genes related with the response to unfolded and topologically incorrect proteins | – | – | – | > 1 mM
